Experimental data as given in patent publication US6812346B2, “Substituted pyridines as selective cyclooxygenase-2 inhibitors” (Merck Frosst Canada and Co., priority 1996, dated 2004).
Read-outs that look alike come from different tables or passages of the source.

Key:
COX-1 = target: T1, COX-1 (Homo sapiens, UniProt P23219); assay: Cox-1 U937 (COX-1 activity from U937 cell microsomes); assay type: biochemical; conditions: U937, PGE2 synthesis in presence of AA
T1 construct: Assay of COX-1 Activity from U937 Cell Microsomes; endogenous in cells; host or cells: U937 cells, 100,000 x g microsomal fraction
T1 sequence (P23219 24-599): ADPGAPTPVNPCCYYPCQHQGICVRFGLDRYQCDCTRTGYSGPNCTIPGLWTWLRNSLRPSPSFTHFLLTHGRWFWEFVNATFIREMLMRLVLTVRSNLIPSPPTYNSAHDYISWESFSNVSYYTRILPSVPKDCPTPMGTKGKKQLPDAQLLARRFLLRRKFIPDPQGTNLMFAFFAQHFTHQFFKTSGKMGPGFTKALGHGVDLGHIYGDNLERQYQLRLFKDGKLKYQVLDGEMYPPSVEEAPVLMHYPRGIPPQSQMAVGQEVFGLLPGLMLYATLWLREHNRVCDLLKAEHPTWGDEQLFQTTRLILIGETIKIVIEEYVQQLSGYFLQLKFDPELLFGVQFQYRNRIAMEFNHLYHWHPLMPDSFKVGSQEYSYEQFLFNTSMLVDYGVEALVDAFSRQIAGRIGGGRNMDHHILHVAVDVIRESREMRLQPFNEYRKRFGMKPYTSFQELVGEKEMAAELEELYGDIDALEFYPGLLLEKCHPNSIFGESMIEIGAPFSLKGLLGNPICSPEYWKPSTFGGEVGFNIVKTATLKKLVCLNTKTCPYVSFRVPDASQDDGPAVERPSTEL
Method: Assay of COX-1 Activity from U937 Cell Microsomes
U 937 cells are pelleted by centrifugation at 500×g for 5 min and washed once with phosphate-buffered saline and repelleted. Cells are resuspended in homogenization buffer consisting of 0.1 M Tris-HCl, pH 7.4, 10 mM EDTA, 2 μg/ml leupeptin, 2 μg/ml soybean trypsin inhibitor, 2 μg/ml aprotinin and 1 mM phenyl methyl sulfonyl fluoride. The cell suspension is sonicated 4 times for 10 sec and is centrifuged at 10,000×g for 10 min at 4° C. The supernatant is centrifuged at 100,000×g for 1 hr at 4° C. The 100,000×g microsomal pellet is resuspended in 0.1 M Tris-HCl, pH 7.4, 10 mM EDTA to approximately 7 mg protein/ml and stored at −80° C.
Assays are performed in duplicate in a final volume of 250 μl. Initially, 5 μl of DMSO vehicle or drug in DMSO are added to 20 μl of 0.1 M Tris-HCl buffer, pH 7.4 containing 10 mM EDTA in wells of a 96-deepwell polypropylene titre plate. 200 μl of the microsomal preparation are then added and pre-incubated for 15 min at room temperature before addition of 25 μl of […] in […] Tris-HCl and 10 mM EDTA, pH 7.4. Samples are incubated for 40 min at room temperature and the reaction is stopped by the addition of 25 μl of 1 N HCl. Samples are neutralized with 25 μl of 1 N NaOH prior to quantitation of PGE2 content by radioimmunoassay (Dupont-NEN or Amersham assay kits). Cyclooxygenase activity is defined as the difference between PGE2 levels in samples incubated in the presence of arachidonic acid and ethanol vehicle.

[1] = system: carrageenan-induced rat paw edema; assay: Rat paw edema assay; assay type: in vivo; conditions: male Sprague-Dawley rats, po, 1 hr before carrageenan, paw volume 3 hr later; for ED50: Rattus norvegicus
Method: Male Sprague-Dawley rats (150-200 g) are fasted overnight and are given, po, either vehicle (1% methocel or 5% Tween 80) or a test compound. One hr later, a line is drawn using a permanent marker at the level above the ankle in one hind paw to define the area of the paw to be monitored. The paw volume (V0) is measured using a plethysmometer (Ugo-Basile, Italy) based on the principle of water displacement. The animals are then injected subplantarly with 50 μl of 1% carrageenan solution in saline (FMC Corp, Maine) into the paw using an insulin syringe with a 25-gauge needle (i.e. 500 μg carrageenan per paw). Three hr later, the paw volume (V3) is measured and the increases in paw volume (V3-V0) are calculated. The animals are sacrificed by CO2 asphyxiation and the absence or presence of stomach lesions scored. Data is compared with the vehicle-control values and percent inhibition calculated. All treatment groups are coded to eliminate observer bias.

COX-2 = target: T2, COX-2 (Homo sapiens, UniProt P35354); assay: Human whole blood assay, COX-2 (LPS-induced PGE2 production); assay type: cell-based
T2 sequence (P35354 18-604): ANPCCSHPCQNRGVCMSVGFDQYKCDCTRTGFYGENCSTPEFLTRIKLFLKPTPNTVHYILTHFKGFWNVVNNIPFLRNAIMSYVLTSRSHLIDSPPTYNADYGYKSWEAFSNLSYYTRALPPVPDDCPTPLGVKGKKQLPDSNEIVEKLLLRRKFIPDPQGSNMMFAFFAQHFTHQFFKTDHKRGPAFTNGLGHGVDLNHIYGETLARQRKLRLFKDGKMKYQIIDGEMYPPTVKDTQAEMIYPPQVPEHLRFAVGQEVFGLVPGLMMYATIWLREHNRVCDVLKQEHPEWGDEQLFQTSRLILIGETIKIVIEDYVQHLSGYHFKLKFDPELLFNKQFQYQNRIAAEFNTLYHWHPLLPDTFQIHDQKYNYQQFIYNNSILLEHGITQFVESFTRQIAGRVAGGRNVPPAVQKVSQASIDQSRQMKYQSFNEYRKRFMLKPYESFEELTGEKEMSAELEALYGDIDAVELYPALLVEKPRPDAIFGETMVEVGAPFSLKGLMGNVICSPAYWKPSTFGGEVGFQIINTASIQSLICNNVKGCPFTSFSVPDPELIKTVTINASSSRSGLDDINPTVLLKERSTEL
From the text: As well, platelets in whole blood contain a large amount of the COX-1 enzyme. Immediately following blood clotting, platelets are activated through a thrombin-mediated mechanism. This reaction results in the production of thromboxane B2 (TxB2) via activation of COX-1. Thus, the effect of test compounds on TxB2 levels following blood clotting can be examined and used as an index for COX-1 activity. Therefore, the degree of selectivity by the test compound can be determined by measuring the levels of PGE2 after LPS induction (COX-2) and TxB2 following blood clotting (COX-1) in the same assay.
Step A: COX-2 (LPS-induced PGE2 Production)
Fresh blood is collected in heparinized tubes by venipuncture from both male and female volunteers. The subjects have no apparent inflammatory conditions and have not taken any NSAIDs for at least 7 days prior to blood collection. Plasma is immediately obtained from a 2 mL blood aliquot to use as blank (basal levels of PGE2).

[2] = human whole blood, LPS-induced PGE2 production, 24 hours at 37° C., read-out: Cox-2 Whole Blood (IC50)
[3] = Cox-1 U937 IC50 over Cox-2 whole blood IC50

SMILES	IC50 (COX-1) [µM]	IC50 (COX-2; [2]) [µM]	Selectivity Ratio (COX-2; [3])	ED50 [1] [mg/kg]	other results
CS(=O)(=O)O.CS(=O)(=O)c1ccc(-c2cc(Cl)cnc2-c2cccnc2)cc1 [Example 46, 5-Chloro-3-(4-methylsulfonyl)phenyl-2-(3-pyridyl)pyridine hydromethanesulfonate]	–	–	–	–	Rat Paw Edema (ED50, mg/kg) [1]: 3.3 mg/kg
CCc1ccc(-c2ncc(Cl)cc2-c2ccc(S(C)(=O)=O)cc2)cn1 [Example 71, 5-Chloro-3-(4-methylsulfonyl)phenyl-2-(2-ethyl-5-pyridinyl)pyridine]	> 10	–	–	1.6	–
Cc1ccc(-c2ncc(Cl)cc2-c2ccc(S(C)(=O)=O)cc2)cn1 [Example 23, 5-Chloro-3-(4-methylsulfonyl)phenyl-2-(2-methyl-5-pyridinyl)pyridine]	> 10	–	–	–	–
CS(=O)(=O)c1ccc(-c2cccnc2-c2ccccc2)cc1 [Aa, reference compound]	–	–	–	> 10	–
CS(=O)(=O)c1ccc(-c2cc(Cl)cnc2-c2ccc(C3CC3)nc2)cc1 [Example 73, 5-Chloro-3-(4-methylsulfonyl)phenyl-2-(2-cyclopropyl-5-pyridinyl)pyridine]	7	–	–	2	IC50 (COX-2): 1.8 µM; Selectivity Ratio (COX-2): 3.8
CS(=O)(=O)c1ccc(-c2cc(Cl)cnc2-c2cccnc2)cc1 [Example 21, 5-Chloro-3-(4-methylsulfonyl)phenyl-2-(3-pyridinyl)pyridine]	16	1	16	2.3	–
Cc1ccc(-c2ncc(Cl)cc2-c2ccc(S(C)(=O)=O)cc2)cn1.Cl [Example 59, 5-Chloro-3-(4-methylsulfonyl)phenyl-2-(2-methyl-5-pyridinyl)pyridine Hydrochloride]	–	–	–	–	Rat Paw Edema (ED50, mg/kg) [1]: 0.8 mg/kg
CS(=O)(=O)c1ccc(-c2cc(C#N)cnc2-c2ccc(Cl)cc2)cc1 [Example 45, 5-Cyano-2-(4-chlorophenyl)-3-(4-methylsulfonyl)phenylpyridine]	> 10	2.2	>4.5	3	–
CS(=O)(=O)c1ccc(-c2cc(Cl)cnc2-c2cccnc2)cc1.Cl [Example 47, 5-Chloro-3-(4-methylsulfonyl)phenyl-2-(3-pyridyl)pyridine hydrochloride]	–	–	–	–	Rat Paw Edema (ED50, mg/kg) [1]: 2.4 mg/kg

Continued, in another order:

IC50 (COX-1) [µM]	IC50 (COX-2; [2]) [µM]	Selectivity Ratio (COX-2; [3])	SMILES	ED50 [1] [mg/kg]	other results
5	–	–	CS(=O)(=O)c1ccc(-c2cc(C(F)(F)F)cnc2-c2cccnc2)cc1 [Example 7, 3-(4-Methylsulfonyl)phenyl-2-(3-pyridinyl)-5-trifluoromethylpyridine]	–	–
> 10	1.2	–	CS(=O)(=O)c1ccc(-c2cc(Br)cnc2-c2cccnc2)cc1 [Example 32]	0.9	–
1.8	0.9	2	CS(=O)(=O)c1ccc(-c2cc(C(F)(F)F)cnc2-c2ccc(Cl)cc2)cc1 [Example 3, 2-(4-Chlorophenyl)-3-(4-methylsulfonyl)phenyl-5-trifluoromethylpyridine]	–	–
3	0.5	6	Cc1cnc(-c2ccccc2)c(-c2ccc(S(C)(=O)=O)cc2)c1 [Example 13, 5-Methyl-3-(4-methylsulfonyl)phenyl-2-phenylpyridine]	–	–
2.2	4.9	–	CS(=O)(=O)c1ccc(-c2cccnc2-c2ccc(F)cc2)cc1 [Ab, reference compound]	–	–
1.5	0.3	4.4	CS(=O)(=O)c1ccc(-c2cc(C(F)(F)F)cnc2-c2ccccc2)cc1 [Example 1, 3-(4-Methylsulfonyl)phenyl-2-phenyl-5-trifluoromethylpyridine]	5.4	–
1.4	0.7	2	Cc1cnc(-c2ccc(Cl)cc2)c(-c2ccc(S(C)(=O)=O)cc2)c1 [Example 14, 2-(4-Chlorophenyl)-5-methyl-3-(4-methylsulfonyl)phenylpyridine]	–	–
1	0.3	3.3	CS(=O)(=O)c1ccc(-c2cc(C(F)(F)F)cnc2-c2ccc(F)cc2)cc1 [Example 4, 2-(4-Fluorophenyl)-3-(4-methylsulfonyl)phenyl-5-trifluoromethylpyridine]	–	–
